Results published in ChEMBL document CHEMBL1240307, “A functional genomics approach to the mode of action of apratoxin A” (Nat Chem Biol, 2006).
pIC50: −log10 of the molar value.

What was measured:
MOLT-4 = experiment: Cytotoxicity against human MOLT4 cells by sulforhodamine B assay; format: functional
HOP-62 = experiment: Cytotoxicity against human HOP62 cells by sulforhodamine B assay; format: functional
NCI-H322M = experiment: Cytotoxicity against human NCI-H322M cells by sulforhodamine B assay; format: functional
HCT-116 = experiment: Cytotoxicity against human HCT116 cells by sulforhodamine B assay; format: functional
HCT-15 = experiment: Cytotoxicity against human HCT15 cells by sulforhodamine B assay; format: functional
SW-620 = experiment: Cytotoxicity against human SW620 cells by sulforhodamine B assay; format: functional
SF-268 = experiment: Cytotoxicity against human SF268 cells by sulforhodamine B assay; format: functional
SF-539 = experiment: Cytotoxicity against human SF539 cells by sulforhodamine B assay; format: functional
SNB-19 = experiment: Cytotoxicity against human SNB19 cells by sulforhodamine B assay; format: functional
SNB-75 = experiment: Cytotoxicity against human SNB75 cells by sulforhodamine B assay; format: functional
U-251 = experiment: Cytotoxicity against human U251 cells by sulforhodamine B assay; format: functional
Malme-3M = experiment: Cytotoxicity against human MALME-3M cells by sulforhodamine B assay; format: functional
M14 = experiment: Cytotoxicity against human M14 cells by sulforhodamine B assay; format: functional
SK-MEL-5 = experiment: Cytotoxicity against human SK-MEL-5 cells by sulforhodamine B assay; format: functional
IGROV-1 = experiment: Cytotoxicity against human IGROV1 cells by sulforhodamine B assay; format: functional
OVCAR-4 = experiment: Cytotoxicity against human OVCAR4 cells by sulforhodamine B assay; format: functional
OVCAR-5 = experiment: Cytotoxicity against human OVCAR5 cells by sulforhodamine B assay; format: functional
OVCAR-8 = experiment: Cytotoxicity against human OVCAR8 cells by sulforhodamine B assay; format: functional
TK-10 = experiment: Cytotoxicity against human TK10 cells by sulforhodamine B assay; format: functional
HT-29 [1] = experiment: Antitumor activity against human HT-29 cells assessed as upregulation of RASSF4 mRNA expression at 10 nM after 6 hrs relative to control; format: functional
HT-29 [2] = experiment: Antitumor activity against human HT-29 cells assessed as upregulation of RASSF4 mRNA expression at 2 nM after 12 hrs relative to control; format: functional
HT-29 [3] = experiment: Antitumor activity against human HT-29 cells assessed as upregulation of RASSF4 mRNA expression at 10 nM after 12 hrs relative to control; format: functional
HT-29 [4] = experiment: Antitumor activity against human HT-29 cells assessed as upregulation of DDIT4 mRNA expression at 10 nM after 3 hrs relative to control; format: functional
HT-29 [5] = experiment: Antitumor activity against human HT-29 cells assessed as upregulation of DDIT4 mRNA expression at 2 nM after 6 hrs relative to control; format: functional
HT-29 [6] = experiment: Antitumor activity against human HT-29 cells assessed as upregulation of DDIT4 mRNA expression at 10 nM after 6 hrs relative to control; format: functional
HT-29 [7] = experiment: Antitumor activity against human HT-29 cells assessed as upregulation of HSPA1A mRNA expression at 2 nM after 6 hrs relative to control; format: functional
HT-29 [8] = experiment: Antitumor activity against human HT-29 cells assessed as upregulation of HSPA1A mRNA expression at 2 nM after 12 hrs relative to control; format: functional
HT-29 [9] = experiment: Antitumor activity against human HT-29 cells assessed as down-regulation of RAB11B mRNA expression at 2 nM after 12 hrs relative to control; format: functional
HT-29 [10] = experiment: Antitumor activity against human HT-29 cells assessed as down-regulation of TAL1 mRNA expression at 2 nM after 3 hrs relative to control; format: functional
HT-29 [11] = experiment: Antitumor activity against human HT-29 cells assessed as down-regulation of TAL1 mRNA expression at 2 nM after 12 hrs relative to control; format: functional
HT-29 [12] = experiment: Antitumor activity against human HT-29 cells assessed as down-regulation of CDC25A mRNA expression at 10 nM after 12 hrs relative to control; format: functional
HT-29 [13] = experiment: Antitumor activity against human HT-29 cells assessed as down-regulation of CCNE2 mRNA expression at 10 nM after 3 hrs relative to control; format: functional
HT-29 [14] = experiment: Antitumor activity against human HT-29 cells assessed as down-regulation of CCNE2 mRNA expression at 10 nM after 6 hrs relative to control; format: functional
HT-29 [15] = experiment: Antitumor activity against human HT-29 cells assessed as down-regulation of GTSE1 mRNA expression at 10 nM after 3 hrs relative to control; format: functional
HT-29 [16] = experiment: Antitumor activity against human HT-29 cells assessed as down-regulation of GTSE1 mRNA expression at 2 nM after 6 hrs relative to control; format: functional
HT-29 [17] = experiment: Antitumor activity against human HT-29 cells assessed as upregulation of KCNK10 mRNA expression at 10 nM after 3 hrs relative to control; format: functional
HT-29 [18] = experiment: Antitumor activity against human HT-29 cells assessed as upregulation of KCNK10 mRNA expression at 2 nM after 6 hrs relative to control; format: functional
HT-29 [19] = experiment: Antitumor activity against human HT-29 cells assessed as upregulation of KCNK10 mRNA expression at 2 nM after 12 hrs relative to control; format: functional
HT-29 [20] = experiment: Antitumor activity against human HT-29 cells assessed as upregulation of MGC4504 mRNA expression at 10 nM after 3 hrs relative to control; format: functional
HT-29 [21] = experiment: Antitumor activity against human HT-29 cells assessed as upregulation of MGC4504 mRNA expression at 2 nM after 6 hrs relative to control; format: functional
HT-29 [22] = experiment: Antitumor activity against human HT-29 cells assessed as upregulation of MGC4504 mRNA expression at 10 nM after 6 hrs relative to control; format: functional
U2OS [23] = experiment: Cell cycle arrest in human U2OS cells assessed as accumulation at G1 phase at 5 nM after 24 hrs by FACS analysis (reference value: 49.8%); format: functional
U2OS [24] = experiment: Cell cycle arrest in human U2OS cells assessed as accumulation at S phase at 50 nM after 24 hrs by FACS analysis (reference value: 37.3%); format: functional
U2OS [25] = experiment: Cell cycle arrest in human U2OS cells assessed as accumulation at G1 phase at 5 nM after 48 hrs by FACS analysis (reference value: 49.8%); format: functional
U2OS [26] = experiment: Cell cycle arrest in human U2OS cells assessed as accumulation at G1 phase at 50 nM after 48 hrs by FACS analysis (reference value: 49.8%); format: functional
U2OS [27] = experiment: Induction of apoptosis in human U2OS cells assessed as caspase3 dependent cleavage of Ac-DEVD-pNA at 50 nM after 6-48 hrs by […] relative to control; format: functional
[28] = Cytotoxicity against activated human CD4+ T cells assessed as cell viability after 5 days by fluorescence detection method; format: cell-based; conditions: 120 h
[29] = Cytotoxicity against resting human CD4+ T cell assessed as cell viability after 3 days by fluorescence detection method; format: cell-based; conditions: 72 h
U2OS [30] = experiment: Cell cycle arrest in human U2OS cells overexpressing mouse Fgfr1 assessed as accumulation at G1 phase at 15 nM after 48 hrs by CMV-GFP reporter assay method (reference value: 58%); format: functional

## CC[C@H](C)[C@H]1C(=O)N2CCC[C@H]2C(=O)O[C@H](C(C)(C)C)C[C@@H](C)C[C@H](O)[C@H](C)C2=N[C@@H](/C=C(\C)C(=O)N[C@@H](Cc3ccc(OC)cc3)C(=O)N(C)[C@@H](C)C(=O)N1C)CS2 [APRATOXIN A]
MOLT-4
  GI50: 48 nM
HOP-62
  GI50: 7.68 nM
NCI-H322M
  GI50: 3.99 nM
HCT-116
  GI50: 0.916 nM
HCT-15
  GI50: 4.29 nM
SW-620
  GI50: 3.16 nM
SF-268
  GI50: 50.8 nM
SF-539
  GI50: 0.503 nM
SF-539; read-out: LC50 (the source's name)
  CC50: 69.4 nM
SNB-19
  GI50: 7 nM
SNB-75
  GI50: 1.96 nM
U-251
  GI50: 1.56 nM
Malme-3M
  GI50: 4.77 nM
M14
  GI50: 2.09 nM
SK-MEL-5
  GI50: 2.31 nM
IGROV-1
  GI50: 0.742 nM
OVCAR-4
  GI50: > 100 nM
OVCAR-5
  GI50: > 100 nM
OVCAR-8
  GI50: 7.26 nM
TK-10
  GI50: 2.63 nM
HT-29 [1]
  fold change (FC): <=2
HT-29 [2]
  fold change (FC): <=2
HT-29 [3]
  fold change (FC): <=2
HT-29 [4]
  fold change (FC): 4.09
HT-29 [5]
  fold change (FC): 10.37
HT-29 [6]
  fold change (FC): 16.18
HT-29 [7]
  fold change (FC): 2.56
HT-29 [8]
  fold change (FC): <=2
HT-29 [9]
  fold change (FC): <=2
HT-29 [10]
  fold change (FC): -2.52
HT-29 [11]
  fold change (FC): <=2
HT-29 [12]
  fold change (FC): -2.79
HT-29 [13]
  fold change (FC): <=2
HT-29 [14]
  fold change (FC): <=2
HT-29 [15]
  fold change (FC): <=2
HT-29 [16]
  fold change (FC): <=2
HT-29 [17]
  fold change (FC): 10.01
HT-29 [18]
  fold change (FC): 6.35
HT-29 [19]
  fold change (FC): <=2
HT-29 [20]
  fold change (FC): <=2
HT-29 [21]
  fold change (FC): 7.57
HT-29 [22]
  fold change (FC): 10.46
U2OS [23]
  inhibition at 0.005 µM: 61.6%
U2OS [24]
  inhibition at 0.05 µM: 22.6%
U2OS [25]
  inhibition at 0.005 µM: 82.1%
U2OS [26]
  inhibition at 0.05 µM: 50.2%
U2OS [27]
  fold change (FC): 20
[28]
  pIC50: 7.22
[29]
  pIC50: 5.74
U2OS [30]
  inhibition at 0.015 µM: 58%
